Measurements taken from patent US10488418B2, “Fluorescence assay for intestinal permeability” (THE REGENTS OF THE UNIVERSITY OF CALIFORNIA, priority 2014, dated 2019).
Like-named read-outs stand apart in the source and are kept apart here.

Experiments:
[1] = Viologen based fluorescence assay for sugars in urine with 4,4′oBBV and HPTS; parameters: species or system human
Source text: (§1) A Marquardt 4-parameter curve fit was used. […] The g in urine/g ingested×100 yielded % ingested. Lactulose measurements were confirmed by enzyme assay.
Statistics: The lower limit of detection (LLOD) was defined as the analyte concentration in the urine sample at which fluorescence intensity in the assay was 3 standard deviations above the mean baseline fluorescence. Similarly, the lower limit of quantification (LLOQ) was defined as 10 standard deviations above the mean baseline fluorescence. Coefficient of variation percent (CV %) was determined by averaging sets of samples each measured in 4 wells. Results are given as mean±SEM.

[2] = human, in vivo
Procedure: (§2) Intestinal permeability test in humans: Subjects consumed 0.5-1.0 L water the night before and in the morning about 3 hour prior to sample collection. The first morning urine was voided. No food or other beverages were consumed prior to the test. Permeability probes were ingested after baseline urine collection. […] Test subjects were permitted to drink water or coffee as desired. Light snacks were permitted after the fourth hour. Urine volumes were recorded and 50 mL was retained for analysis.
(§3) Sample collection: Freshly collected urine (50 ml) was first centrifuged 2500 RCF at 4° C. for 10 minutes.
(§4) Supernatants were pipetted 40 μL/well in duplicate into plates (#3694, Corning, USA). Fluorescence (Exc/Em 450/580 nm) was read on a plate reader (Infinite M200Pro, Tecan, Switzerland). Concentration was calculated as mg/mL and multiplied by total urine volume in mL, giving total mg in urine. The mg in urine/mg ingested×100 yielded % ingested.
(§5) The SPE column was cleaned with MeOH and H2O between runs. […] Data was corrected for a 9% loss. After SPE, samples were directed to the various assays.
(§6) Viologen method for lactulose and mannitol permeability in humans: Ready-made assay 96 well plates were prepared (#3694, Corning, 199 USA). A 4× premix buffer was prepared (0.1 M sodium phosphate, 0.1 M HEPES, 0.04% Triton X-100, pH 7.4). To this was added HPTS (16 μM) and quencher (1.6 mM 4,4′oBBV or 2.0 mM 4,4′oMBV), each 4 times above final concentration. The different viologen concentrations were chosen to achieve similar extents of quenching in the absence of sugar (about 20% of free fluorophore) while preserving a strong signal to noise (S/N). Blank wells were given 10 μl 4× premix buffer with neither HPTS nor viologen. Some wells received 16 μM HPTS without quencher to determine maximum possible fluorescence. All other wells received 10 μl of the complete 4× premix. Those premixes containing 4,4′oBBV were continuously vortexed because the mixture is a suspension. Plates were sealed with plate tape and stored at 4° C. until use.
(§7) Upon running an assay, 30 μl of standards or samples were pipetted into wells. Final concentrations were 4 μM HPTS and 400 μM 4,4′oBBV or 500 μM 4,4′oMBV. Urine samples were placed in both blank wells (for individual sample blanking) and wells containing complete 4× premix. Plates were put on a shaker for 1 hr, RT. During this time, sugars interacted with the HPTS-viologen complex, liberating HPTS into solution. Plates were then centrifuged at 2500 RCF for 10 minutes at room temperature to pull down remaining HPTS-quencher particulate matter. Plate tape was removed and fluorescence read on a plate reader (Tecan M-200 Infinite, gain 70, 404/535 nm). The height was adjusted to read from the top of the solution (18 mm). […] A Marquardt 4-parameter curve fit was used. Sugar concentrations were calculated as g/mL and multiplied by total urine volume in mL, giving total amount of urine in grams. Values were corrected for percentage recovery from the C18 SPE step. The g in urine/g ingested×100 yielded % ingested. Lactulose measurements were confirmed by enzyme assay. Mannitol measurements were confirmed by HPLC-Evaporative Light Scattering Detector (HPLC-ELSD) using a C8 pre-column and Prevail Carbohydrate ES 5μ 250×4.6 mm column (Grace Davison 224 Discovery Sciences, Ill., USA) with 80:20 MeCN/H2O.

[3] = Quenching of HPTS fluorescence by boronic acid viologen in absence of sugar
Procedure: as §1
The term “Initial quench” as used herein refers to HPTS fluorescence in presence of quencher and absence of sugar (maximum achievable quench) as a percent of maximum possible fluorescence with 4 μM free HPTS in absence of any quencher. The term “LLOD” as used herein refers to analyte concentration in original urine sample (as opposed to final concentration in the assay) at which the fluorescence signal equals or exceeds 3 standard deviations above mean assay noise level. The term “LLOQ” as used herein refers to analyte concentration in original urine sample at which the fluorescence signal equals or exceeds 10 standard deviations above mean assay noise level. The term “range” as used herein refers to urine concentrations found in healthy volunteers before transforming data to % ingested. The term “Mean±SEM” as used herein refers to standard mean plus or minus standard error of mean as generally understood in medical science. The term “CV %” as used herein refers to intra-assay coefficient of variation for samples.

[4] = Intestinal permeability test in humans (urine excretion of ingested probes)
Procedure: as §2, §3, §4, §5, §6, §7

[5] = viologen assay system, viologen not specified

## OC[C@H]1O[C@@H](O[C@@H]2[C@@H](CO)OC(O)(CO)[C@H]2O)[C@H](O)[C@@H](O)[C@H]1O (mixture of isomers) [Lactulose, lactulose]
[1]; [5]
  signal stronger than fructose: ~20%
[2]
  Typical values for humans (urine concentration): 0.2 to 1.5 mM

## OB(O)c1ccccc1C[n+]1ccc(-c2cc[n+](Cc3ccccc3B(O)O)cc2)cc1 [4,4′oBBV, 1,1′-bis(2-boronobenzyl)-4,4′-bipyridinium]
[1]; 4,4′oBBV
  Relative selectivity: lactulose>fructose>galactose

## OB(O)c1ccccc1C[n+]1ccc(-c2cc[n+](Cc3ccccc3)cc2)cc1 [4,4′oMBV, 1-(2-boronobenzyl)-1′-benzyl-4,4′-bipyridinium]
[3]; HPTS fluorescence with quencher and no sugar, as percent of 4 μM free HPTS, final 400 μM 4,4′oBBV or 500 μM 4,4′oMBV
  Initial Quench % Max: 16%
[3]; HPTS quenching, 0 μM sugar
  higher concentration required than 4,4′oBBV to achieve the same extent of quenching: about 20%

## OC[C@@H](O)[C@@H](O)[C@H](O)[C@H](O)CO [Mannitol, mannitol]
[2]
  time of return to baseline in urine after ingestion: about 6 hours
[4]; human urine
  Typical values for humans (urine concentration): 1 to 10 mM
[4]; human urine after oral 50 mg riboflavin, 5 g mannitol or 10 g lactulose, mean±SEM, sugars measured with 4,4′oBBV
  RANGE (urine concentrations found in healthy volunteers): 3929 ± 972 µM

## Cc1cc2nc3c(=O)[nH]c(=O)nc-3n(C[C@H](O)[C@H](O)[C@H](O)CO)c2cc1C [Riboflavin, riboflavin]
[2]
  Typical values for humans (urine concentration): 0.01 to 0.1 mM
  time of return to baseline in urine after ingestion: about 6 hours

## OC[C@H]1O[C@@H](O[C@H]2[C@H](O)[C@@H](O)C(O)O[C@@H]2CO)[C@H](O)[C@@H](O)[C@H]1O (stereo partly shown) [lactose]
[1]; 10 mM sugar
  response of 4,4′oBBV to sugar: essentially no response

## OC[C@H]1O[C@H](O[C@]2(CCl)O[C@H](CCl)[C@@H](O)[C@@H]2O)[C@H](O)[C@@H](O)[C@H]1Cl [sucralose]
[1]
  interference with the viologen based method: Neither sucrose nor sucralose interfere

## OC[C@H]1O[C@@](CO)(O[C@H]2O[C@H](CO)[C@@H](O)[C@H](O)[C@H]2O)[C@@H](O)[C@@H]1O [sucrose]
[1]
  interference with the viologen based method: Neither sucrose nor sucralose interfere
[1]; [5]
  fluorescence signal: no signal

## O=C(CO)[C@@H](O[C@H]1O[C@H](CO)[C@@H](O)[C@H](O)[C@H]1O)[C@H](O)[C@H](O)CO [turanose]
[1]; [5]
  fluorescence as percent of fructose: ~30%
  fluorescence as percent of the lactulose fluorescence: ~20%
